Source: PubChem BioAssay AID256 (DTP/NCI, 2004)
Inconclusive results and toxic doses are left out. The calls were made as follows: active = survival T/C of 150% or more; inactive = T/C below 125% in these data.

System: CD2F1 mice, L1210 leukemia ip, survival T/C
Assay: NCI In Vivo Anticancer Drug Screen. Data for tumor model L1210 Leukemia (intraperitoneal) in CD2F1 (CDF1) mice
Settings: endpoint: mean survival time, higher = longer survival
Procedure, shortened: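 Antitumor effect is scored in animals hosting a serially transplanted tumor. Values compare compound-dosed animals against vehicle-only controls as a simple quotient.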

Measured: T/C

O=c1[nH]c(=O)n(C2OC(CO)C3OP(=O)(C45CC6CC(CC(C6)C4)C5)OC32)cc1Br (stereo not drawn)
inactive: dose: 12.5 mg/kg/injection, schedule: Q01DX005 (ip), vehicle: other 93 % of control | dose: 25.0 mg/kg/injection, schedule: Q01DX005 (ip), vehicle: other 97 % of control | dose: 50.0 mg/kg/injection, schedule: Q01DX005 (ip), vehicle: other 93 % of control | dose: 100.0 mg/kg/injection, schedule: Q01DX005 (ip), vehicle: other 93 % of control | dose: 200.0 mg/kg/injection, schedule: Q01DX005 (ip), vehicle: other 93 % of control

Cc1cc(Cl)ccc1N=Cc1ccc2c(c1)OCO2
inactive: dose: 100.0 mg/kg/injection, schedule: Q01DX001 (ip), vehicle: Klucel (hydroxypropylcellulose) (HPC) 95 % of control | dose: 100.0 mg/kg/injection, schedule: Q01DX009 (ip), vehicle: Klucel (hydroxypropylcellulose) (HPC) 108 % of control | dose: 200.0 mg/kg/injection, schedule: Q01DX001 (ip), vehicle: Klucel (hydroxypropylcellulose) (HPC) 102 % of control | dose: 200.0 mg/kg/injection, schedule: Q01DX009 (ip), vehicle: Klucel (hydroxypropylcellulose) (HPC) 105 % of control | dose: 400.0 mg/kg/injection, schedule: Q01DX001 (ip), vehicle: Klucel (hydroxypropylcellulose) (HPC) 95 % of control | dose: 400.0 mg/kg/injection, schedule: Q01DX009 (ip), vehicle: Klucel (hydroxypropylcellulose) (HPC) 98 % of control

CCNC1=C(C)C(=O)C2=C(C1=O)C(COC(N)=O)C1(OC)C3NC3CN21 (stereo not drawn)
inactive: dose: 1.5 mg/kg/injection, schedule: Q01DX001 (ip), vehicle: water 98 % of control | dose: 3.0 mg/kg/injection, schedule: Q01DX001 (ip), vehicle: water 110 % of control | dose: 6.0 mg/kg/injection, schedule: Q01DX001 (ip), vehicle: water 110 % of control | dose: 12.0 mg/kg/injection, schedule: Q01DX001 (ip), vehicle: water 114 % of control

O=C(O)CCC(NC(=O)OCc1ccccc1)C(=O)OCc1ccccc1 (stereo not drawn)
inactive: dose: 100.0 mg/kg/injection, schedule: Q04DX003 (ip), vehicle: saline with Tween-80 95 % of control | dose: 200.0 mg/kg/injection, schedule: Q04DX003 (ip), vehicle: saline with Tween-80 93 % of control | dose: 400.0 mg/kg/injection, schedule: Q04DX003 (ip), vehicle: saline with Tween-80 96 % of control
